Reference: the NIST ThermoML archive (doi:10.1016/j.jct.2011.07.021)
Numbers after ± are expanded uncertainties.

What was measured:
[1] = relative permittivity at zero frequency (dimensionless); xn = mol fraction of the nth substance listed; conditions: 101 kPa, Liquid, Parallel plate capacitor
[2] = refractive index (Na D-line) (dimensionless); xn = mol fraction of the nth substance listed; conditions: 101 kPa, Liquid, Standard Abbe refractometry

CCC(O)CO (configuration not stated) [1,2-butanediol] + C1COCCO1
Conditions	refractive index, 298.2 K	refractive index, 308.2 K	refractive index, 318.2 K	relative permittivity at zero frequency, 298.2 K	relative permittivity at zero frequency, 308.2 K	relative permittivity at zero frequency, 318.2 K
[1], x1 = 0.099	–	–	–	3.127 ± 0.022	3.015 ± 0.02	2.92 ± 0.019
[1], x1 = 0.148	–	–	–	3.659 ± 0.025	3.496 ± 0.024	3.359 ± 0.022
[1], x1 = 0.197	–	–	–	4.254 ± 0.027	4.064 ± 0.026	3.875 ± 0.024
[1], x1 = 0.246	–	–	–	4.882 ± 0.03	4.632 ± 0.029	4.406 ± 0.025
[1], x1 = 0.299	–	–	–	5.685 ± 0.033	5.407 ± 0.031	5.046 ± 0.028
[1], x1 = 0.349	–	–	–	6.472 ± 0.036	6.079 ± 0.031	5.696 ± 0.03
[1], x1 = 0.401	–	–	–	7.376 ± 0.039	6.854 ± 0.036	6.419 ± 0.033
[1], x1 = 0.448	–	–	–	8.243 ± 0.041	7.732 ± 0.039	7.193 ± 0.035
[1], x1 = 0.51	–	–	–	9.466 ± 0.043	8.817 ± 0.04	8.122 ± 0.035
[1], x1 = 0.55	–	–	–	10.263 ± 0.047	9.592 ± 0.044	8.783 ± 0.04
[1], x1 = 0.611	–	–	–	11.646 ± 0.05	10.84 ± 0.046	9.908 ± 0.043
[1], x1 = 0.685	–	–	–	13.401 ± 0.054	12.41 ± 0.05	11.301 ± 0.047
[1], x1 = 0.788	–	–	–	16.007 ± 0.058	14.739 ± 0.054	13.469 ± 0.051
[1], x1 = 0.855	–	–	–	17.761 ± 0.063	16.335 ± 0.058	15.027 ± 0.055
[1], x1 = 0.907	–	–	–	19.272 ± 0.067	17.748 ± 0.063	16.307 ± 0.058
[1], x1 = 0.96	–	–	–	20.867 ± 0.071	19.214 ± 0.066	17.628 ± 0.06
[1], x1 = 1	–	–	–	22.143 ± 0.037	20.365 ± 0.036	18.661 ± 0.036
[2], x1 = 0.099	1.4212 ± 0.0004	1.416 ± 0.0004	1.4103 ± 0.0004	–	–	–
[2], x1 = 0.148	1.4221 ± 0.0004	1.4166 ± 0.0004	1.4115 ± 0.0004	–	–	–
[2], x1 = 0.197	1.4227 ± 0.0004	1.4173 ± 0.0004	1.4124 ± 0.0004	–	–	–
[2], x1 = 0.246	1.4236 ± 0.0004	1.4182 ± 0.0004	1.4133 ± 0.0004	–	–	–
[2], x1 = 0.299	1.4242 ± 0.0004	1.4189 ± 0.0004	1.4142 ± 0.0004	–	–	–
[2], x1 = 0.349	1.4253 ± 0.0004	1.42 ± 0.0004	1.415 ± 0.001	–	–	–
[2], x1 = 0.401	1.4259 ± 0.0004	1.4208 ± 0.0004	1.4162 ± 0.0004	–	–	–
[2], x1 = 0.448	1.4268 ± 0.0004	1.4218 ± 0.0004	1.4168 ± 0.0004	–	–	–
[2], x1 = 0.51	1.428 ± 0.0004	1.4231 ± 0.0004	1.4177 ± 0.0004	–	–	–
[2], x1 = 0.55	1.4287 ± 0.0005	1.4237 ± 0.0005	1.4191 ± 0.0005	–	–	–
[2], x1 = 0.611	1.4297 ± 0.0005	1.4248 ± 0.0005	1.4203 ± 0.0005	–	–	–
[2], x1 = 0.685	1.4311 ± 0.0005	1.4263 ± 0.0005	1.4218 ± 0.0005	–	–	–
[2], x1 = 0.788	1.433 ± 0.0005	1.4285 ± 0.0005	1.4236 ± 0.0005	–	–	–
[2], x1 = 0.855	1.4341 ± 0.0005	1.4295 ± 0.0005	1.4253 ± 0.0005	–	–	–
[2], x1 = 0.907	1.4353 ± 0.0005	1.4307 ± 0.0005	1.4265 ± 0.0005	–	–	–
[2], x1 = 0.96	1.436 ± 0.0005	1.432 ± 0.0005	1.4278 ± 0.0005	–	–	–
[2], x1 = 1	1.4372 ± 0.0005	1.433 ± 0.0005	1.4288 ± 0.0005	–	–	–

CCCCC(CC)CO (configuration not stated) [2-ethyl-1-hexanol] + CCC(O)CO
Conditions	refractive index, 298.2 K	refractive index, 308.2 K	refractive index, 318.2 K	relative permittivity at zero frequency, 298.2 K	relative permittivity at zero frequency, 308.2 K	relative permittivity at zero frequency, 318.2 K
[1], x2 = 0	–	–	–	7.353 ± 0.022	6.362 ± 0.021	5.52 ± 0.02
[1], x2 = 0.111	–	–	–	7.683 ± 0.021	6.922 ± 0.021	6.232 ± 0.021
[1], x2 = 0.199	–	–	–	8.152 ± 0.022	7.52 ± 0.023	6.851 ± 0.022
[1], x2 = 0.291	–	–	–	8.91 ± 0.02	8.32 ± 0.024	7.636 ± 0.024
[1], x2 = 0.345	–	–	–	9.464 ± 0.027	8.8 ± 0.027	8.14 ± 0.026
[1], x2 = 0.399	–	–	–	10.065 ± 0.029	9.44 ± 0.029	8.701 ± 0.029
[1], x2 = 0.448	–	–	–	10.678 ± 0.031	9.995 ± 0.03	9.312 ± 0.03
[1], x2 = 0.501	–	–	–	11.404 ± 0.035	10.69 ± 0.032	9.954 ± 0.032
[1], x2 = 0.563	–	–	–	12.382 ± 0.038	11.556 ± 0.036	10.873 ± 0.034
[1], x2 = 0.625	–	–	–	13.435 ± 0.04	12.625 ± 0.039	11.819 ± 0.037
[1], x2 = 0.667	–	–	–	14.198 ± 0.044	13.357 ± 0.041	12.559 ± 0.041
[1], x2 = 0.702	–	–	–	14.955 ± 0.045	14.023 ± 0.044	13.21 ± 0.04
[1], x2 = 0.75	–	–	–	15.885 ± 0.05	15.005 ± 0.047	14.022 ± 0.044
[1], x2 = 0.814	–	–	–	17.454 ± 0.054	16.338 ± 0.048	15.347 ± 0.046
[1], x2 = 0.897	–	–	–	19.447 ± 0.059	18.115 ± 0.051	16.989 ± 0.044
[2], x2 = 0	1.4293 ± 0.0004	1.4252 ± 0.0004	1.4213 ± 0.0004	–	–	–
[2], x2 = 0.111	1.4295 ± 0.0004	1.4254 ± 0.0004	1.4215 ± 0.0004	–	–	–
[2], x2 = 0.199	1.4295 ± 0.0004	1.4257 ± 0.0004	1.4219 ± 0.0004	–	–	–
[2], x2 = 0.291	1.4299 ± 0.0004	1.4259 ± 0.0004	1.4222 ± 0.0004	–	–	–
[2], x2 = 0.345	1.4301 ± 0.0004	1.4261 ± 0.0004	1.4225 ± 0.0004	–	–	–
[2], x2 = 0.399	1.4303 ± 0.0004	1.4265 ± 0.0004	1.4228 ± 0.0004	–	–	–
[2], x2 = 0.448	1.4307 ± 0.0004	1.4269 ± 0.0004	1.423 ± 0.0004	–	–	–
[2], x2 = 0.501	1.431 ± 0.001	1.4272 ± 0.0004	1.4234 ± 0.0004	–	–	–
[2], x2 = 0.563	1.4313 ± 0.0004	1.4275 ± 0.0004	1.4237 ± 0.0004	–	–	–
[2], x2 = 0.625	1.432 ± 0.001	1.4281 ± 0.0005	1.4241 ± 0.0005	–	–	–
[2], x2 = 0.667	1.4323 ± 0.0005	1.4284 ± 0.0005	1.4245 ± 0.0005	–	–	–
[2], x2 = 0.702	1.4327 ± 0.0005	1.4289 ± 0.0005	1.4249 ± 0.0005	–	–	–
[2], x2 = 0.75	1.4335 ± 0.0005	1.4295 ± 0.0005	1.4253 ± 0.0005	–	–	–
[2], x2 = 0.814	1.4342 ± 0.0005	1.4303 ± 0.0005	1.4259 ± 0.0005	–	–	–
[2], x2 = 0.897	1.4354 ± 0.0005	1.4314 ± 0.0005	1.427 ± 0.0005	–	–	–
